According to the NIST ThermoML archive (doi:10.1016/j.fluid.2009.11.030):

Experiment: excess molar enthalpy (molar enthalpy of mixing); xn = mol fraction of the nth substance listed
Conditions: 101.3 kPa, Liquid, Isothermal microcalorimeter

CCOC(=O)CC(=O)OCC [diethyl 1,3-propanedioate] + CCCCO
excess molar enthalpy [kcal/mol]
Conditions	288.15 K	298.15 K	313.15 K	328.15 K	338.15 K	348.15 K
x1 = 0.0498	0.123	0.133	0.146	0.153	0.156	0.152
x1 = 0.1085	0.239	0.254	0.285	–	0.308	0.308
x1 = 0.1482	0.2978	0.3164	0.354	0.3676	0.3853	0.3956
x1 = 0.1991	0.3619	0.3858	0.4369	0.4627	0.472	0.4723
x1 = 0.2499	0.4099	0.4383	0.4947	0.5249	0.533	0.5418
x1 = 0.3003	0.4496	0.4828	0.544	0.576	0.587	0.5882
x1 = 0.3501	0.4754	0.5177	0.5789	0.6128	0.6219	0.6252
x1 = 0.3988	0.4967	0.5378	0.6006	0.6315	0.6429	0.6482
x1 = 0.4501	0.5096	0.5507	0.6128	0.6424	0.6539	0.6511
x1 = 0.5	0.5134	0.5557	0.6104	0.6415	0.6513	0.6487
x1 = 0.548	0.51	0.5511	0.6028	0.6322	0.6379	0.6322
x1 = 0.5984	0.5005	0.5337	0.582	0.6047	0.6121	0.6119
x1 = 0.6512	0.4742	0.5086	0.5495	0.5705	0.575	0.5693
x1 = 0.6965	0.4498	0.4763	0.51	0.5256	0.5313	0.5239
x1 = 0.749	0.4037	0.4264	0.4598	0.4627	0.4625	0.457
x1 = 0.7985	0.3516	0.3683	0.3896	0.397	0.3963	0.3922
x1 = 0.8502	0.282	0.2949	0.3109	0.3107	0.3162	0.306
x1 = 0.8981	0.203	0.213	0.226	0.216	0.232	0.224
x1 = 0.948	0.109	0.114	0.123	0.111	0.127	0.122
